The values that follow come from PubChem BioAssay AID720589 (Broad Institute, 2013).

The experiment deals with HepG2 viability, ATP luminescence (CellTiter-Glo), 72 h. The experiment can be described thus: HepG2 hepatoma cell cytotoxicity, dose response, cytotoxicity control, CellTiter-Glo luminescence, cherry-pick, set 3 (AID 720589).
As for `O=C1NC(=O)N(Cc2ccc(F)cc2)C(=O)/C1=C\C=C\c1ccco1`, the AC35 was 9.05 µM. The same measure for `C[C@@H]1CN([C@H](C)CO)S(=O)(=O)c2ccc(C#CC(C)(C)O)cc2O[C@H]1CN(C)Cc1ccc(-c2ccccc2)cc1`: 6.19 µM. As to `C[C@@H]1CCCCO[C@H](CN(C)Cc2ccc(C(=O)Nc3ccccc3N)cc2)[C@@H](C)CN([C@H](C)CO)C(=O)c2cc(NS(=O)(=O)c3ccc(Cl)cc3)ccc2O1`, the AC35 is 9.81 µM. `Cc1cc(C)c2sc(NNC(=O)c3ccc(S(=O)(=O)N4CCc5ccccc5C4)cc3)nc2c1`: the AC35 is 3.76 µM. The same measure for `Nc1cc2c(cc1Br)[nH]c(=O)c1ccccc12`: 19.2 µM; for `CC12CCC(O)CC1CCC1C2CCC2(C)C(C3=CC(=O)OC3)CCC12O` (stereo not drawn): 1.17 µM; for `CC(=O)OC1CC2(O)C3CCC4CC(O)CCC4(C)C3CCC2(C)C1C1=CC(=O)OC1` (stereo not drawn): 0.602 µM. The same measure for `COc1ccc(S(=O)(=O)Nc2ccc3c(c2)C(=O)N([C@H](C)CO)C[C@@H](C)[C@@H](CN(C)Cc2ccc(C(=O)Nc4ccccc4N)cc2)O3)cc1`: 10.8 µM; for `Cc1c(CC(=O)NCCCC(=O)O)c(=O)oc2cc3c(cc12)CCC(C)(C)O3`: 16.3 µM.

Regarding `CCCCc1c(-c2ccccc2OC)ncn1Cc1ccc(C(C)(C)C)cc1`, the AC35 is 8.48 µM. The same measure for `CCN1/C(=C/C(C)=C/c2sc3ccccc3[n+]2CC)Sc2ccccc21`: 0.838 µM; for `COc1ccc(Nc2ncnc3ccc(Br)cc23)c(OC)c1`: 15.6 µM. For `C[C@@H]1CCCCO[C@H](CN(C)Cc2ccc(C(=O)Nc3ccccc3N)cc2)[C@@H](C)CN([C@H](C)CO)C(=O)c2cc(NS(=O)(=O)c3ccc(F)cc3)ccc2O1`, the AC35 is 10.4 µM. The same measure for `CCCN1C/C(=C/c2ccc3c(c2)OCO3)C(=O)/C(=C/c2ccc3c(c2)OCO3)C1`: 12.5 µM; for `Cc1cccc(CN2C(=O)/C(=C\c3ccc(C(=O)NCCCN4CCN(C)CC4)cc3)Oc3ccccc32)c1`: 11.2 µM; for `Cc1nc(N)nc(N)c1CCCc1ccc(Cl)c(Cl)c1`: 0.761 µM.

As for `CC(=O)OC1CC(OC2C(O)CC(OC3C(O)CC(OC4CCC5(C)C(CCC6C5CCC5(C)C(C7=CC(=O)OC7)CCC65O)C4)OC3C)OC2C)OC(C)C1OC1OC(CO)C(O)C(O)C1O` (stereo not drawn), the AC35 is 0.0996 µM. In the case of `C[C@H](CO)N1C[C@H](C)[C@H](CN(C)CC2CCCCC2)Oc2ccc(NC(=O)CCCCCC(=O)Nc3ccccc3N)cc2CC1=O`, the AC35 was 0.219 µM. The same measure for `CCN1C/C(=C/c2ccc(N3CCOCC3)cc2)C(=O)/C(=C/c2ccc(N3CCOCC3)cc2)C1`: 10.5 µM; for `CC(C)=CCC/C(C)=C/CN1C(=O)N(c2ccc(F)cc2)[C@H]2C[C@@H](c3ccccc3)[C@@H](C)[C@@H](C(=O)N3CCOCC3)C[C@H]21`: 3.74 µM; for `COc1ccccc1C(CCNCc1ccc(N(C)C)cc1)c1ccc(OC(C)C)cc1` (stereo not drawn): 4.74 µM.

For the molecule `Nc1nc(=S)c2[nH]cnc2[nH]1`, the AC35 is 1.81 µM. The same measure for `Cc1cc2c(C(C)C)c(O)c(O)c(C=O)c2c(O)c1-c1c(C)cc2c(C(C)C)c(O)c(O)c(C=O)c2c1O`: 13.7 µM. With `O=C(NC[C@@H]1N[C@@H](CO)[C@H]1c1ccc(C2=CCCCC2)cc1)c1cccc(F)c1`, the AC35 is 7.71 µM.

Turning to `CC(=O)OC1CC(OC2C(O)CC(OC3C(O)CC(OC4CCC5(C)C(CCC6C5CCC5(C)C(C7=CC(=O)OC7)C(O)CC65O)C4)OC3C)OC2C)OC(C)C1OC1OC(CO)C(O)C(O)C1O` (stereo not drawn), the AC35 was 0.475 µM. The same measure for `O=C(Nc1ccc(F)cc1)N1CCCCN2[C@@H](CO)[C@H](c3ccc(C4=CCCCC4)cc3)[C@@H]2C1`: 8.45 µM; for `COC(=O)c1ccccc1-c1c2ccc(=N)cc-2oc2cc(N)ccc12`: 10.2 µM. The same measure for `O=C(Nc1ccc(Br)cc1)c1ccc(F)c(S(=O)(=O)N2CCN(c3ccccn3)CC2)c1`: 2.69 µM; for `C[C@@H]1CN([C@@H](C)CO)C(=O)c2cc(NC(=O)c3ccccc3)ccc2O[C@@H](C)CCCCO[C@H]1CN(C)C(=O)Nc1cccc2ccccc12`: 0.927 µM. Take `C[C@@H]1CN([C@H](C)CO)C(=O)c2cc(NC(=O)Nc3ccccc3)ccc2O[C@@H]1CN(C)Cc1ccc(C(=O)Nc2ccccc2N)cc1`: the AC35 is 8.38 µM.

As for `C[C@H]1CN([C@@H](C)CO)S(=O)(=O)c2ccc(C#CC(C)(C)O)cc2O[C@@H]1CN(C)Cc1ccc(-c2ccccc2)cc1`, the AC35 is 0.689 µM. The same measure for `CN=c1scc(-c2ccccc2F)n1/N=C/c1ccc[nH]1`: 0.638 µM; for `NC(Cc1ccc(C(F)(F)F)cc1)c1csc(NC(=O)Nc2ccccc2Cc2ccccc2)n1` (stereo not drawn): 12.4 µM; for `O=C1Nc2cc(C(=O)NCCN3CCCCCC3)ccc2S/C1=C\c1ccccc1`: 10.7 µM. The same measure for `C[C@@H]1CN([C@H](C)CO)C(=O)c2cccc(N(C)C)c2O[C@@H]1CN(C)Cc1ccc(C(=O)Nc2ccccc2N)cc1`: 3.05 µM; for `C[C@H]1O[C@@H](O[C@H]2[C@@H](O)C[C@H](O[C@H]3[C@@H](O)C[C@H](O[C@H]4CC[C@@]5(C)[C@H](CC[C@@H]6[C@@H]5C[C@@H](O)[C@]5(C)[C@@H](C7=CC(=O)OC7)CC[C@]65O)C4)O[C@@H]3C)O[C@@H]2C)C[C@H](O)[C@@H]1O`: 0.155 µM; for `Nc1nc(=S)c2ncn([C@@H]3O[C@H](CO)[C@@H](O)[C@H]3O)c2[nH]1`: 2.56 µM. In the case of `COc1ccc(CC(N)c2csc(NC(=O)Nc3cccc(C(F)(F)F)c3)n2)cc1` (stereo not drawn), the AC35 was 6.15 µM. For `C[C@H]1CN([C@@H](C)CO)S(=O)(=O)c2ccc(C#Cc3ccncc3)cc2O[C@@H]1CN(C)C(=O)Nc1ccc2c(c1)OCO2`, the AC35 is 0.902 µM. The same measure for `O=C1NC(=O)N(c2ccccc2)C(=O)/C1=C\C=C\c1ccccc1`: 5.21 µM; for `COC(=O)C1=C(C)N(Cc2ccccc2C(F)(F)F)C(=NCc2ccc(OC)cc2)NC1c1ccc(C(F)(F)F)cc1` (stereo not drawn): 11.1 µM. The same measure for `CCCCCCCN(c1ccccc1)[C@@H]1C[C@H]2CCCC(=O)N3CC[C@@H](C1)[C@@H]23`: 17.3 µM; for `COC1C(O)C(C)OC(OC2CCC3(C)C(CCC4C3C(O)CC3(C)C(C5=CC(=O)OC5)CCC43O)C2)C1O` (stereo not drawn): 0.204 µM; for `COc1cc2c(cc1NC(=O)CN(C)Cc1ccc(OC)c(OC)c1)oc1ccccc12`: 15.6 µM.

Regarding `COc1ccccc1NC(=O)N1CCCCN2[C@H](CO)[C@H](c3ccc(-c4cccc(C)c4)cc3)[C@H]2C1`, the AC35 was 12.5 µM. The same measure for `Cc1cccc(/C=C(\c2nc3ccccc3[nH]2)S(=O)(=O)c2ccccc2)c1`: 10.7 µM; for `COc1cccc(O)c1CN1CCC(C(=O)Nc2ccc(-c3cccc(C)c3)cc2)CC1`: 10.4 µM; for `Oc1[nH]c2ccc(Br)cc2c1N=NC(=S)N1CCOCC1`: 2.9 µM. `C[C@@H]1CN([C@H](C)CO)C(=O)c2cc(NC(=O)c3ccccc3)ccc2O[C@@H](C)CCCCO[C@H]1CN(C)C(=O)Nc1cccc2ccccc12`: the AC35 is 1.54 µM. In the case of `C[C@@H]1CN([C@@H](C)CO)C(=O)c2cc(NS(=O)(=O)c3ccc(F)cc3)ccc2O[C@@H]1CN(C)Cc1ccc(C(=O)Nc2ccccc2N)cc1`, the AC35 is 0.354 µM. The same measure for `COc1ccc2cc(C(N)=O)/c(=N\NC(=O)c3ccccc3)oc2c1`: 17.2 µM; for `CCCCCCCCCCCCCCCCn1cc[n+](C)c1`: 4.54 µM; for `C[C@H](CO)N1C[C@H](C)[C@H](CN(C)Cc2ccc(C(=O)Nc3ccccc3N)cc2)Oc2c(cccc2N(C)C)C1=O`: 0.615 µM.
